The record followed here is ChEMBL document CHEMBL1821691, “Cytotoxic C21 and C22 terpenoid-derived metabolites from the sponge Ircinia sp” (J Nat Prod, 2011).

The test system of one test is K562. The experiment in a line: Cytotoxicity against human K562 cells by XTT reagent based automated microculture tetrazolium assay. It counts as functional, cell-based. A general note: Tetrazolium dyes change colour on reduction, which living cells bring about.
For a further test, the system named is DLD-1. The test is described as follows: Cytotoxicity against human DLD1 cells by XTT reagent based automated microculture tetrazolium assay. It counts as functional, cell-based.
The test system of a further test is HepG2. The test is described as follows: Cytotoxicity against human HepG2 cells by XTT reagent based automated microculture tetrazolium assay. The test is classed as functional, cell-based.
Test [1] is described as follows: Cytotoxicity against human Hep3B cells by XTT reagent based automated microculture tetrazolium assay. The test is classed as functional, cell-based, Hep 3B2.

Structures are written as SMILES.

In the case of `CC(=O)O[C@H](CC/C(C)=C/[C@@H](O)C/C(C)=C/CCc1ccoc1)[C@]1(C)CCC(=O)O1`, the half-inhibitory concentration (IC50) in the test with K562 is 5.4 µM; with DLD-1, 0.03 µM; in the test with HepG2 it was 0.5 µM; in test [1], 1.1 µM.

`CC(=O)O[C@H](/C=C(\C)CC[C@@H](O)[C@]1(C)CCC(=O)O1)C/C(C)=C/CCc1ccoc1`: the IC50 was determined as 9.6 µM in the test on K562, 0.2 µM in the test on DLD-1, 2.2 µM with HepG2 and 10.6 µM in test [1].

Consider `C/C(=C\[C@@H](O)C/C(C)=C/CCc1ccoc1)CC[C@@H](O)[C@]1(C)CCC(=O)O1` [IRCIFORMONIN B], for which the IC50 in the test with K562 was 7.8 µM; in the test on DLD-1, 0.04 µM; in the test with HepG2, 1 µM; in test [1], 6.4 µM.

For `CC(=O)O[C@H](/C=C(\C)CC[C@@H](OC(C)=O)[C@]1(C)CCC(=O)O1)C/C(C)=C/CCc1ccoc1` [IRCIFORMONIN F], the IC50 in the test on K562 was 10.2 µM; in the test on DLD-1 it was 0.6 µM; in the test on HepG2, 1.7 µM; in test [1] it was 7 µM.

`C/C(=C\[C@@H](O)C/C(C)=C/CCCC(=O)CO)CC[C@@H](O)[C@]1(C)CCC(=O)O1` [IRCINOLIN A]: the IC50 (in the test with K562; in the test on DLD-1; in the test on HepG2; in test [1]) was > 20 µM in each case.

The IC50 is the concentration needed to halve the response being measured. Low values mean greater potency in that assay, high ones weaker potency in that assay.
